These are literature values, as cited in patent US12163116B2, “Automated bioreactor with foam collector” (OHIO STATE INNOVATION FOUNDATION, priority 2018, dated 2024).

One data set relates to L. innocua. As to conditions: against L. innocua; taught by prior art.
For data set [1], the system named is Gram-positive bacteria including species of Listeria, Clostridium, Lactobacillus, Staphylococcus, Bacillus.
The conditions of data set [2]: compared to commercially available lantibiotics such as nisin.

On to paenibacillin, for which the water solubility entry was “highly water soluble”. Further, the minimum inhibitory concentration with L. innocua is 4 µg/mL. For the same substance, the antimicrobial potency result in data set [1] is recorded as “potent against Gram-positive bacteria”. The “temperature and pH stability” value in data set [2] was “relatively high temperature and pH stability”.
